In US20210015793A1, “COMPOUNDS FOR TREATING CNS- AND NEURODEGENERATIVE DISEASES” (ETH ZURICH, priority 2018, published 2021):

How the values were obtained:
[1] = test system: male B6 mice; experiment: Aging-induced deterioration of male sperm quality in B6 mice; format: in vivo, mouse; settings: 18-month-old male B6 mice, 15 months treatment; for epididymal sperm count / sperm vitality (eosin-nigrosin staining) / total sperm motility: 8 mg/kg/d in drinking water
Description: Sperm count, and motility were determined by microscopic semen analysis of male B6 mice at an age of 3 months and 18 months similarly as described (Komori et al., Reprod. Med. Biol. 5, 195-200, 2006). Sperm cells were isolated from male B6 mice from the epididymis as described (Esposito et al., Proc. Nat. Acad. Sci. U.S.A. 101, 2993-2998, 2004). Sperm concentration was determined with a Neubauer hemocytometer. Percentage of sperm motility was determined with a 10 microl sample loaded onto a clean slide glass and covered with a coverslip. Sperm motility was evaluated under positive phase-contrast microscopy at a total magnification of ×400, and graded according to the WHO criteria (Komori et al., Reprod. Med. Biol. 5, 195-200, 2006), i.e. percentage of motile sperm cells was counted, and the percentage of progressive and not progressive sperm motility was determined. At least 300 spermatozoa were evaluated. Spermatozoa viability was determined by eosin-nigrosine staining technique. A drop of spermatozoa suspension in PBS was mixed with one drop of aqueous eosin Y solution (1%), and incubated for 15 s. Thereafter, two drops of 10% aqueous nigrosine solution were added and mixed. An aliquot of this mixture was transferred to a glass slide, a thin smear was made, and air dried. Stained spermatozoa were examined under a light microscope, and the percentage of live sperm cells was determined. Live sperm cells appear white whereas dead sperm cells are coloured pink. Treatment of male B6 mice with Compound-1 and Compound-1F (8 mg/kg/d in drinking water) was started at an age of 3 months and continued until the end of the observation period at an age of 18 months.

[2] = test system: Tg2576 AD mice; experiment: SDS-insoluble hippocampal Abeta1-40 and Abeta1-42 by sandwich ELISA in Tg2576 mice; format: in vivo, mouse; settings: 18 months-old Tg2576 mice, 6 months of treatment, 8 mg/kg/d in drinking water
Description: (§1) For quantitative analysis of SDS-insoluble hippocampal contents of Abeta1-40 and Abeta1-42, hippocampi were dissected out from brains isolated on ice from 18-month-old Tg2576 mice without and with treatment for 6 months with Compound-1 and Compound-4. Isolated hippocampi were pulverized under liquid nitrogen, and SDS-insoluble Abeta peptides were extracted by serial extraction in 14 microL/mg wet weight of Tris buffer (50 mM Tris, 200 nM NaCl, 2 mM EDTA, pH 7.2, supplemented with 1× protease inhibitors/1× phosphatase inhibitors), followed by extraction with Triton X-100-containing buffer (Tris extraction buffer with 0.1% Triton X-100), and followed by extraction with 2% SDS. The remaining pellet was extracted with formic acid (70% formic acid in Tris buffer supplemented with 1× protease inhibitors/1× phosphatase inhibitors). The resulting formic-acid extract was neutralized with 1 M Tris buffer, pH 11, and used for quantitative determination of Abeta1-40 and Abeta1-42 by sandwich ELISA relative to a standard curve according to the protocol of the manufacturer (KHB3481 and KHB3441, Thermo Fisher Scientific, Waltham, Mass., USA).
as §1, with “mM” for “nM”, “and with” for “relative to”

[3] = 28-day repeated oral dosing safety in German shepherd dogs; format: in vivo, dog; settings: for sedation / ECG: P-R interval, QRS interval and Q-T interval before vs after treatment / blood levels of AST, ALT, ALP, BUN and fasting blood glucose / hematologic parameters (Hb, HCT, RBCs, MCV, MCHC) before vs after treatment / total number of white blood cells / systolic and diastolic blood pressure / heart rate / tolerability: dogs; for ECG: P-R interval, QRS interval and Q-T interval before vs after treatment / blood levels of AST, ALT, ALP, BUN and fasting blood glucose / hematologic parameters (Hb, HCT, RBCs, MCV, MCHC) before vs after treatment / total number of white blood cells: once daily 60, 120 and 200 mg for 28 days; for systolic and diastolic blood pressure: once daily 60, 120 and 200 mg/d for 28 days; for heart rate: repeated oral dosing for 28 days; for tolerability: therapeutic dose range; for body weight: male and female dogs, once daily 20, 60, 120 and 200 mg/d for 28 days
Description: Dog serum concentrations of Compound-1, Compound-1F and Compound-4 were determined with serum isolated from the blood of German shepherd dogs (age: 8-9 months) taken at different time points (2 h, 4 h, 6 h, 8, 10 h, 24 h) after oral drug intake. The steady-state serum concentrations of Compound-1, Compound-1F and Compound-4 were determined in mice with blood isolated at the end of the study by cardiac puncture. Serum proteins were removed by acetonitrile precipitation, and compounds were extracted by chloroform before separation on an HPLC-C18 column (Poroshell 120 EC-C18, Agilent) with an HPLC system (Agilent 1100 Series) and detection at OD 280 nm, for Compound-1 and Compound-1F. Detection of Compound-4 was performed at OD 310 nm. The same extraction method was also used to determine Compound-1F in the serum of healthy human research participants. Dog hematology and biochemical parameters were determined by the Center of Applied Analytical and Veterinary Studies, Cairo, Egypt. ECG and blood pressure were measured by Dr. Mohamed Elsaed, Electrocardiography Unit, Faculty of Veterinary Medicine, Cairo University. The study was approved by the ethical committee of the Center of Applied and Veterinary Studies, Cairo, Egypt. Clinical laboratory parameters of human research participants were determined by the Rabaa El Adaweya Medical Central Hospital, Cairo, Egypt.

[4] = test system: male B6 mice; experiment: Aging-induced deterioration of male sperm quality in B6 mice; format: in vivo, mouse; settings: 18-month-old male B6 mice, 15 months treatment

| SMILES | decrease in progressive sperm motility [1] | epididymal sperm count [1] | sperm vitality (eosin-nigrosin staining) [1] | total sperm motility [1] | hippocampal content of Abeta1-40 [2] | hippocampal content of Abeta1-42 [2] | sedation ([3]; daily dose of 120 mg/d) | sedation ([3]; highest dose of 200 mg) | ECG: P-R interval, QRS interval and Q-T interval before vs after treatment [3] | blood levels of AST, ALT, ALP, BUN and fasting blood glucose [3] | hematologic parameters (Hb, HCT, RBCs, MCV, MCHC) before vs after treatment [3] | total number of white blood cells [3] | systolic and diastolic blood pressure [3] | heart rate [3] | tolerability [3] | body weight [3] | aging-induced epididymal degeneration (H&E sections of cauda epididymis) [4] |
| --- | --- | --- | --- | --- | --- | --- | --- | --- | --- | --- | --- | --- | --- | --- | --- | --- | --- |
| O=C(C1=C(O)C(c2ccccc2)N(c2ccc3c(c2)OCO3)C1=O)C1CC1 (stereo not shown) [Compound-1, 1-(1,3-benzodioxol-5-yl)-4-(cyclopropane-carbonyl)-3-hydroxy-2-phenyl-2H-pyrrol-5-one] | largely prevented | retarded the aging-induced decrease in epididymal sperm count | maintained sperm vitality | improved total sperm motility | significantly decreased | significantly decreased | no sedation | showed sedation | not significantly different | did not significantly alter | not significantly different | not altered | did not significantly change systolic and diastolic blood pressure | did not significantly affect heart rate | excellent tolerability | did not significantly change body weight | prevented |
| O=C(C1=C(O)C(c2ccc(F)cc2)N(c2ccc3c(c2)OCO3)C1=O)C1CC1 (stereo not shown) [Compound-1F, 1-(1,3-Benzodioxol-5-yl)-4-(cyclopropanecarbonyl)-2-(4-fluorophenyl)-3-hydroxy-2H-pyrrol-5-one] | largely prevented | retarded the aging-induced decrease in epididymal sperm count | maintained sperm vitality | improved total sperm motility | significantly decreased | significantly decreased | no sedation | showed sedation | not significantly different | did not significantly alter | not significantly different | not altered | did not significantly change systolic and diastolic blood pressure | did not significantly affect heart rate | excellent tolerability | did not significantly change body weight | prevented |
